The source of these data is article PMC11288027, “Exploring novel microbial metabolites and drugs for inhibiting Clostridioides difficile” (mSphere, 2024).

The test system of assay [1] is C. difficile ATCC BAA-1870. The assay is described as follows: MIC of active hits by broth microdilution. Particulars: C. difficile ATCC BAA-1870, 48 h anaerobic; for MIC: Clostridioides difficile, ATCCBAA1870, 48 h. For orientation: In broth dilution the organism is exposed to a series of concentrations in liquid medium.
For assay [2], the system named is C. difficile clinical isolates. The assay is described as follows: MIC against a panel of 20 C. difficile clinical isolates (broth microdilution). Format: cell-based, Clostridioides difficile. The following applies: Clostridioides difficile; for MIC50: concentration that inhibited 50% of the 20 C. difficile clinical isolates, read-out: MIC50; for MIC: read-out: minimum inhibitory concentration (MIC); for MIC90: concentration that inhibited 90% of the 20 C. difficile clinical isolates, read-out: MIC90.

A further assay deals with B. fragilis. The assay is described as follows: MIC against human gut microbiota. The following applies: Bacteroides fragilis, anaerobic, read-out: minimum inhibitory concentration (MIC). It counts as cell-based, Bacteroides fragilis.
Another assay relates to B. dorei. The assay is described as follows: MIC against human gut microbiota. Format: cell-based, Bacteroides dorei. The following applies: Phocaeicola dorei; B. dorei HM- 719, BHIS broth, anaerobic; read-out: minimum inhibitory concentration (MIC).
The next assay deals with Bif. breve. Nature of the assay: MIC against human gut microbiota. Format: cell-based, Bifidobacterium breve. The following applies: Bifidobacterium breve, ATCC15700; Bif. breve ATCC 15700, BHIS broth, anaerobic; read-out: minimum inhibitory concentration (MIC).
A further assay deals with Bif. angulatum. The assay is described as follows: MIC against human gut microbiota. It counts as cell-based, Bifidobacterium angulatum. Particulars: Bifidobacterium angulatum; Bif. angulatum HM- 1189, BHIS broth, anaerobic; read-out: minimum inhibitory concentration (MIC).
The next assay has as its system Bif. adolescentis. Nature of the assay: MIC against human gut microbiota. It counts as cell-based, Bifidobacterium adolescentis. Particulars: Bifidobacterium adolescentis; Bif. adolescentis HM- 633, BHIS broth, anaerobic; read-out: minimum inhibitory concentration (MIC).
The subject of the next assay is Bif. longum. The assay is described as follows: MIC against human gut microbiota. Format: cell-based, Bifidobacterium longum. The following applies: Bifidobacterium longum, anaerobic, read-out: minimum inhibitory concentration (MIC).
A further assay concerns E. faecium. The assay is described as follows: MIC against human gut microbiota. The following applies: Enterococcus faecium; E. faecium HM-202, TSB, aerobic; read-out: minimum inhibitory concentration (MIC). It counts as cell-based, Enterococcus faecium.
For another assay, the system named is E. fecalis. The assay is described as follows: MIC against human gut microbiota. It counts as cell-based, Enterococcus faecalis. The following applies: Enterococcus faecalis; E. fecalis HM-970, TSB, aerobic; read-out: minimum inhibitory concentration (MIC).
A further assay has as its system L. casei. Nature of the assay: MIC against human gut microbiota. It counts as cell-based. The following applies: Lacticaseibacillus casei, ATCC334; L. casei ATCC 334, MRS broth, 5% CO2; read-out: minimum inhibitory concentration (MIC).
For another assay, the system named is L. brevis. Nature of the assay: MIC against human gut microbiota. It counts as cell-based, Lactobacillus brevis. The following applies: Levilactobacillus brevis, ATCC14864; L. brevis ATCC-14864, MRS broth, 5% CO2; read-out: minimum inhibitory concentration (MIC).
The next assay has as its system L. rhamanosus. Nature of the assay: MIC against human gut microbiota. Format: cell-based, Lactobacillus rhamnoosus. The following applies: Lactobacillus, ATCC53103; L. rhamanosus ATCC-53103, MRS broth, 5% CO2; read-out: minimum inhibitory concentration (MIC).
Assay [3] deals with C. difficile ATCC BAA-1870. Nature of the assay: Time-kill assay at 5 × MIC. Particulars: C. difficile ATCC BAA-1870, ~10^6 CFU/mL, up to 24 h.
Setting [4] is: ATCC43255, C. difficile ATCC 43255.
Where [5] appears, read: ATCCBAA1870, C. difficile ATCC BAA-1870 (Ribotype-027), purchased compounds, panel test.
The mark [6] stands for this setting: C. difficile CD-1 (Ribotype-027).
The mark [7] stands for this setting: C. difficile CD-6 (Ribotype-027).
The mark [8] stands for this setting: C. difficile CD-10(Ribotype-027).
[9] abbreviates: C. difficile CD-26 (Ribotype-027).
Setting [10] is: C. difficile CD-29 (Ribotype-027).
Where [11] appears, read: B. fragilis HM- 709, BHIS broth.
Where [12] appears, read: B. fragilis HM- 718, BHIS broth.
Where [13] appears, read: Bif. longum HM- 845, BHIS broth.
[14] abbreviates: Bif. longum HM- 846, BHIS broth.
[15] abbreviates: Bif. longum HM- 847, BHIS broth.
The mark [16] stands for this setting: Bif. longum HM- 848, BHIS broth.

Values after ≈ are worked out from the molar mass of the structure shown. Values joined by “and” are separate entries in the source; they are usually repeats but may differ in a detail not shown here. Equal entries are not always repeated. Where two headings read alike, the source gives them in different places.

`Cc1cc(SCc2sc(-c3ccc(C(F)(F)F)cc3)nc2C)ccc1OCC(=O)O` [GW 501516]: the MIC in [1] was 16 µM and 14.5 µg/mL.

Usually MIC50 stands for the lowest concentration that inhibits either 50% of growth or 50% of the strains tested, depending on the study. As usually defined, the MIC90 is an inhibitory concentration at the 90% level, which refers to growth in some studies and to a panel of isolates in others. As for `CCc1c(Cl)c(O)c(Cl)c(O)c1C(=O)O[C@H]1[C@H](O)[C@H](OC)[C@H](OC/C2=C\C=C\C[C@H](O)/C(C)=C/[C@H](CC)[C@@H](O[C@@H]3OC(C)(C)[C@@H](OC(=O)C(C)C)[C@H](O)[C@@H]3O)/C(C)=C/C(C)=C/C[C@@H]([C@@H](C)O)OC2=O)O[C@@H]1C` [Fidaxomicin], the MIC50 in assay [2] (48 h) and in assay [2] was 0.015 µg/mL (≈ 0.0142 µM) throughout. The MIC is no more than 0.0078 µg/mL in [2] (ATCC630, C. difficile ATCC 630); 0.03 µg/mL (≈ 0.0284 µM) in assay [2] (setting [4]); no more than 0.0078 µg/mL in [2] (setting [5]); 0.06 µg/mL (≈ 0.0567 µM) in assay [2] (setting [6]); 0.06 µg/mL (≈ 0.0567 µM) in [2] (setting [7]); 0.03 µg/mL (≈ 0.0284 µM) in [2] (setting [8]). Also, the MIC was 0.03 µg/mL (≈ 0.0284 µM) in assay [2] (C. difficile CD-12); no more than 0.0078 µg/mL in assay [2] (C. difficile CD-13); 0.015 µg/mL (≈ 0.0142 µM) in assay [2] (C. difficile CD-15); no more than 0.0078 µg/mL in [2] (C. difficile CD-22); 0.06 µg/mL (≈ 0.0567 µM) in assay [2] (C. difficile CD-23); no more than 0.0078 µg/mL in [2] (C. difficile CD-24). Moreover, the MIC in [2] (setting [9]) was 0.06 µg/mL (≈ 0.0567 µM); in assay [2] (C. difficile CD-28), 0.015 µg/mL (≈ 0.0142 µM); in assay [2] (setting [10]) it was no more than 0.0078 µg/mL; in assay [2] (C. difficile CD-30) it was 0.015 µg/mL (≈ 0.0142 µM); in assay [2] (C. difficile NR-49302), 0.03 µg/mL (≈ 0.0284 µM); in assay [2] (C. difficile NR-49304) it was no more than 0.0078 µg/mL. Also, the MIC in assay [2] (C. difficile NR-49308) was no more than 0.0078 µg/mL; in [2] (C. difficile NR-49319), 0.03 µg/mL (≈ 0.0284 µM); in the assay with B. fragilis (setting [11]), greater than 256 µg/mL; in the assay with B. fragilis (setting [12]) it was greater than 256 µg/mL; in the assay with B. dorei, greater than 256 µg/mL; in the assay with Bif. breve it was no more than 2 µg/mL. Further, the MIC in the assay on Bif. angulatum, with Bif. adolescentis, with Bif. longum (setting [13]), in the assay with Bif. longum (setting [14]), with Bif. longum (setting [15]) and with Bif. longum (setting [16]) was no more than 2 µg/mL in each case. Besides, the MIC with E. faecium is no more than 2 µg/mL; with E. fecalis, no more than 2 µg/mL; with L. casei it was 8 µg/mL (≈ 7.56 µM); in the assay on L. brevis it was 64 µg/mL (≈ 60.5 µM); in the assay with L. rhamanosus, 8 µg/mL (≈ 7.56 µM); in [1] it was no more than 0.0078 µg/mL. Also, the MIC90 in [2] came to 0.06 µg/mL (≈ 0.0567 µM). The “time to eliminate / clear C. difficile” value in assay [3] is given as no more than 24 h.

Take `Cc1ccc2c(Cl)cc(Cl)c(O)c2n1` [Chlorquinaldol]: the MIC50 in assay [2] (48 h) and in assay [2] was 0.125 µg/mL (≈ 0.548 µM) each time. Also, the MIC is 0.25 µg/mL (≈ 1.1 µM) in assay [2] (ATCC630, C. difficile ATCC 630); 0.06 µg/mL (≈ 0.263 µM) in assay [2] (setting [4]); 0.125 µg/mL (≈ 0.548 µM) in assay [2] (setting [5]); 0.125 µg/mL (≈ 0.548 µM) in assay [2] (setting [6]); 0.125 µg/mL (≈ 0.548 µM) in assay [2] (setting [7]); 0.125 µg/mL (≈ 0.548 µM) in assay [2] (setting [8]). Also, the MIC in assay [2] (C. difficile CD-12) was determined as 0.25 µg/mL (≈ 1.1 µM); in [2] (C. difficile CD-13), 0.25 µg/mL (≈ 1.1 µM); in assay [2] (C. difficile CD-15), 0.125 µg/mL (≈ 0.548 µM); in assay [2] (C. difficile CD-22) it was 0.125 µg/mL (≈ 0.548 µM); in assay [2] (C. difficile CD-23), 0.125 µg/mL (≈ 0.548 µM); in assay [2] (C. difficile CD-24) it was 0.06 µg/mL (≈ 0.263 µM). In addition, the MIC in [2] (setting [9]) was 0.125 µg/mL (≈ 0.548 µM); in assay [2] (C. difficile CD-28) it was 0.125 µg/mL (≈ 0.548 µM); in [2] (setting [10]) it was 0.06 µg/mL (≈ 0.263 µM); in assay [2] (C. difficile CD-30), 0.5 µg/mL (≈ 2.19 µM); in assay [2] (C. difficile NR-49302), 0.125 µg/mL (≈ 0.548 µM); in assay [2] (C. difficile NR-49304) it was 0.06 µg/mL (≈ 0.263 µM). For the same compound, the MIC in assay [2] (C. difficile NR-49308) was 0.06 µg/mL (≈ 0.263 µM); in assay [2] (C. difficile NR-49319) it was 0.06 µg/mL (≈ 0.263 µM); in the assay on B. fragilis (setting [11]) it was no more than 2 µg/mL; in the assay with B. fragilis (setting [12]) it was no more than 2 µg/mL; with B. dorei, no more than 2 µg/mL; in the assay on Bif. breve it was greater than 256 µg/mL. For the same compound, the MIC was determined as 32 µg/mL (≈ 140 µM) in the assay on Bif. angulatum; 32 µg/mL (≈ 140 µM) with Bif. adolescentis; 128 µg/mL (≈ 561 µM) with Bif. longum (setting [13]); 32 µg/mL (≈ 140 µM) with Bif. longum (setting [14]); 64 µg/mL (≈ 281 µM) in the assay on Bif. longum (setting [15]); 64 µg/mL (≈ 281 µM) in the assay with Bif. longum (setting [16]). For the same compound, the MIC with E. faecium is greater than 256 µg/mL; in the assay on E. fecalis, 128 µg/mL (≈ 561 µM); in the assay with L. casei, greater than 256 µg/mL; in the assay with L. brevis it was greater than 256 µg/mL; in the assay with L. rhamanosus it was greater than 256 µg/mL; in assay [1], 0.91 µg/mL. For the same compound, in [2], the MIC90 was 0.25 µg/mL (≈ 1.1 µM). Moreover, the “MIC (μM)” value in assay [1] stood at 2 µM.

Avermectin B1: in [1], the “MIC (μM)” value is 16 µM and the “MIC (μg/mL)” value was found to be 27.71 µg/mL.

For the compound `CC(C)=CCC[C@](C)(O[C@@H]1O[C@H](CO)[C@@H](O)[C@H](O)[C@H]1O)[C@H]1CC[C@]2(C)[C@@H]1[C@H](O)C[C@@H]1[C@@]3(C)CC[C@H](O)C(C)(C)[C@@H]3CC[C@]12C` [Ginsenoside C-K], the MIC in assay [1] is 16 µM and 9.97 µg/mL.

Regarding Ivermectin, in assay [1], the “MIC (μM)” value amounted to 16 µM and the “MIC (μg/mL)” value is 14 µg/mL.
